Results from US9561245B2, “Combination treatments for melanoma” (priority 2012, dated 2017).
Read-outs that look alike come from different tables or passages of the source.

Legend:
[1] = test system: M481, M487 and M610 melanoma cells carrying BRAF V600E mutations; type: in vivo, NSG mice
Procedure: M481, M487 and M610 melanoma cells carrying BRAF V600E mutations were implanted in s.c. tissue on right flanks of NSG mice. When tumors became palpable, mice were randomized to four different treatments. […] Control mice received vehicle only (200 μl 0.5% promethylcellulose, 0.2% Tween80 and 5% DMSO per day). Tumors were measured every 2-3 days with calipers.
In these experiments metastatic melanoma cells were injected subcutaneously in the right flanks of immunocompromised NSG mice. When tumors became palpable, mice were randomized to four different treatments. […] Control mice received vehicle only (200 μl 0.5% promethylcellulose, 0.2% Tween80 and 5% DMSO per day). Tumors were measured every 2-3 days with calipers.

[2] = test system: M481 metastatic melanoma cells; test: M481 melanoma xenograft tumor growth in NSG mice (i.p. agents, PLX 4720 chow); type: in vivo
Procedure: M481 metastatic melanoma cells were implanted in s.c. tissue on right flanks of NSG mice. […] For PLX4720 treatment mice were switched to either a chow diet containing 417 mg/kg PLX4720 or the control chow containing no compound. Tumors were measured every 2-3 day with calipers. Mean±SD is reported (* P<0.05, *** P<0.0005, ns: not significant; two-tailed Student's t test). FIG. 1B, Representative bioluminescence images of melanomas at day 14.
M481 metastatic melanoma cells were implanted in s.c. tissue on right flanks of NSG mice. When tumors became palpable mice were i.p. injected with RO 31-8220 (3 mg/kg) or DMSO. […] Tumors were measured every 2-3 day with calipers. […]
M481 metastatic melanoma cells were implanted in s.c. tissue on right flanks of NSG mice. […] Tumors were measured every 2-3 day with calipers. […]
Transplanting melanoma cells. After sorting, cells were counted and resuspended in staining medium (L15 medium containing 1 mg/ml BSA, 1% penicillin/streptomycin and 10 mM HEPES [pH7.4]) with 25% high protein Matrigel (product 354248; BD Biosciences). […]
Bioluminescence imaging (BLI). Mice were injected with 100 luciferase-GFP+ cells on the right flank and monitored until tumor diameters approached 20 mm, at which point they were imaged along with an uninjected control mouse on an IVIS Imaging System 200 Series (Calliper Life Sciences) using Living Image software. […]

[3] = test system: PKGα; details: cited from earlier work
[4] = target: MSK1 (Homo sapiens, UniProt O75582); details: cited from earlier work
Chain of MSK1 (O75582 whole entry, species assumed): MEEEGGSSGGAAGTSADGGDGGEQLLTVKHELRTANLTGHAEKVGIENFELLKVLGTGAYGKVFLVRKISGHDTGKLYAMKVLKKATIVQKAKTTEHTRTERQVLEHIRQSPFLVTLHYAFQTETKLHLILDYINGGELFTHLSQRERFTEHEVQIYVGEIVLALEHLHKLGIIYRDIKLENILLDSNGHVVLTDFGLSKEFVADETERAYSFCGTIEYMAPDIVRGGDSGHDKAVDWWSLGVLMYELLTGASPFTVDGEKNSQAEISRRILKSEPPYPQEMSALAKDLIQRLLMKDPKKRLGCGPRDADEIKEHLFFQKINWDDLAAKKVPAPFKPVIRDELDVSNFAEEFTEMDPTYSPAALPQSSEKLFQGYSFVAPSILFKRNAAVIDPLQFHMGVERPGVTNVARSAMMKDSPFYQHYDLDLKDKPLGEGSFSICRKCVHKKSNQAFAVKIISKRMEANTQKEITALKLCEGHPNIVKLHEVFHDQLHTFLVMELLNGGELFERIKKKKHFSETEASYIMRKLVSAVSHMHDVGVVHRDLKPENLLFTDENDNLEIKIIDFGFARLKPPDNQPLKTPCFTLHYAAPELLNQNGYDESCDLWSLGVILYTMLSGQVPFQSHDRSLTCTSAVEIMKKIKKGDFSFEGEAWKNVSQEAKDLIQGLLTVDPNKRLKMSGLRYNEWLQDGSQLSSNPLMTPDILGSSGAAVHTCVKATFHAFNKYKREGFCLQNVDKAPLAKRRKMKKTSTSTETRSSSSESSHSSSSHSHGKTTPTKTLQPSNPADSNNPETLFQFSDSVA

[5] = test system: JNK; details: rat adipocytes and L6 myotubes; cited from earlier work
[6] = test system: glycogen synthase; details: rat adipocytes and L6 myotubes; cited from earlier work
[7] = test system: MAPK; details: rat adipocytes and L6 myotubes; cited from earlier work
[8] = test system: ERK2; details: rat adipocytes and L6 myotubes; cited from earlier work

CCCS(=O)(=O)Nc1ccc(F)c(C(=O)c2c[nH]c3ncc(Cl)cc23)c1F [PLX 4720]
growth of human melanoma xenografts ([1]; PLX4720 20 mg/kg/day by oral gavage alone): slowed the growth

Cn1cc(C2=C(c3cn(CCCSC(=N)N)c4ccccc34)C(=O)NC2=O)c2ccccc21 [RO 31-8220]
in vivo tumor growth ([2]; RO 31-8220 3 mg/kg i.p. alone): inhibited the growth of a melanoma as well as the BRAF inhibitor (PLX 4720)
IC50 [3]: 0.033 µM
IC50 [4]: 0.008 µM
effect on JNK [5]: Activates
effect on glycogen synthase [6]: Activates
effect on MAPK [7]: inhibits
effect on ERK2 [8]: inhibits

C[C@H]1O[C@@H](O[C@H]2[C@@H](O)C[C@H](O[C@H]3[C@@H](O)C[C@H](O[C@H]4CC[C@@]5(C)[C@H](CC[C@@H]6[C@@H]5CC[C@]5(C)[C@@H](C7=CC(=O)OC7)CC[C@]65O)C4)O[C@@H]3C)O[C@@H]2C)C[C@H](O)[C@@H]1O [digitoxin]
in vivo tumor growth ([2]; digitoxin 0.5 mg/kg i.p. alone, s.c. xenograft, calipers every 2-3 day): inhibited the growth of a melanoma better than BRAF inhibitor (PLX 4720)
growth of human melanoma xenografts ([1]; digitoxin 0.5 mg/kg/day by oral gavage alone): slowed the growth
